Laboratory results: patent US20260184691A1, “INHIBITORS AND DEGRADERS OF PIP4K PROTEIN” (Larkspur Biosciences, Inc., priority 2022, published 2026)

target: T1, endogenous PIP4K2C C-terminally tagged with HiBiT peptide in MOLT-4 cells (Homo sapiens, UniProt Q8TBX8); test: HiBiT PIP4K2C degradation assay in MOLT-4 cells; assay type: cell-based; conditions: 24 hours, 10-point dose response, top concentration 10 micromolar, read-out: HiBIT-degradation MOLT4 PIP4k2C 24 hours DC50
T1 construct: to C-terminally tag endogenous PIP4K2C with HiBiT peptide; host or cells: MOLT-4 (CRISPR-Cas9 knock-in clone)
T1 sequence (Q8TBX8 1-421): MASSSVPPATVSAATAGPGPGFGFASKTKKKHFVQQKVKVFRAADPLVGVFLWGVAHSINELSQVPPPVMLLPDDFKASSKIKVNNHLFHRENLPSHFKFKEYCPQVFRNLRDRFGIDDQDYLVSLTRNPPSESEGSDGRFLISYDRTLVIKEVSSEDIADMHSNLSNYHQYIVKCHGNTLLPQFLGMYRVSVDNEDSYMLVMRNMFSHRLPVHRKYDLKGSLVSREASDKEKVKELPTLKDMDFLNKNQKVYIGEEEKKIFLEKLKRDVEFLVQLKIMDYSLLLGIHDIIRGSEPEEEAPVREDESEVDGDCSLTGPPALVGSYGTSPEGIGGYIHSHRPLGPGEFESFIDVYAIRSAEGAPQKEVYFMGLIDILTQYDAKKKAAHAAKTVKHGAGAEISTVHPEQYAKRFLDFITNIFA
How it was run: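 Cells bearing C-terminal HiBiT knock-in were exposed to a 10-point, 3-fold dilution series (top 10 micromolar, duplicate) for 24 h at 37C, 5% CO2. Remaining tagged protein read by lytic HiBiT luminescence; DC50 from Hill-equation fit.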

`O=C1CCC(N2Cc3cc(OCCCCCC(=O)N4CCC5(CC4)CCN(c4cncc(Nc6ncc(Cl)c(-c7cccc(-c8ccccc8)c7)n6)c4)C5=O)ccc3C2=O)C(=O)N1` (centres unmarked) [Compound 88, 3-(5-((6-(2-(5-((4-([1,1′-biphenyl]-3-yl)-5-chloropyrimidin-2-yl)amino)pyridin-3-yl)-1-oxo-2,8-diazaspiro[4.5]decan-8-yl)-6-oxohexyl)oxy)-1-oxoisoindolin-2-yl)piperidine-2,6-dione] and `O=C1CCC(N2Cc3cc(OCCCCC(=O)N4CCC5(CC4)CCN(c4cncc(Nc6ncc(Cl)c(-c7cccc(-c8ccccc8)c7)n6)c4)C5=O)ccc3C2=O)C(=O)N1` (centres unmarked) [Compound 87, 3-(5-((5-(2-(5-((4-([1,1′-biphenyl]-3-yl)-5-chloropyrimidin-2-yl)amino)pyridin-3-yl)-1-oxo-2,8-diazaspiro[4.5]decan-8-yl)-5-oxopentyl)oxy)-1-oxoisoindolin-2-yl)piperidine-2,6-dione] cannot be ordered by DC50: < 500 nM for the first, < 500 nM for the second.

`O=C1CCC(N2Cc3cc(C4CCN(C(=O)CN5CCC6(CC5)CCN(c5cncc(Nc7ncc(Cl)c(-c8cccc(C9CC9)c8)n7)c5)C6=O)CC4)ccc3C2=O)C(=O)N1` (centres unmarked) [Compound 198, 3-(5-(1-(2-(2-(5-((5-chloro-4-(3-cyclopropylphenyl)pyrimidin-2-yl)amino)pyridin-3-yl)-1-oxo-2,8-diazaspiro[4.5]decan-8-yl)acetyl)piperidin-4-yl)-1-oxoisoindolin-2-yl)piperidine-2,6-dione] and `Cn1c(=O)n(C2CCC(=O)NC2=O)c2ccc(C3CCN(C(=O)CN4CCC5(CC4)CCN(c4cncc(Nc6ncc(Cl)c(-c7cccc(C8CC8)c7)n6)c4)C5=O)CC3)cc21` (centres unmarked) [Compound 208, 3-[5-[1-[2-[2-[5-[[5-chloro-4-(3-cyclopropylphenyl)pyrimidin-2-yl]amino]-3-pyridyl]-1-oxo-2,8-diazaspiro[4.5]decan-8-yl]acetyl]-4-piperidyl]-3-methyl-2-oxo-benzimidazol-1-yl]piperidine-2,6-dione] cannot be ordered by DC50: < 500 nM for the first, < 500 nM for the second.

Compared with `O=C(CCCCCOc1cccc2c1C(=O)N(C1CCC(=O)NC1=O)C2=O)NCCCCCC(=O)Nc1cncc(Nc2ncc(Cl)c(-c3cccc(-c4ccccc4)c3)n2)c1` (centres unmarked) [Compound 83, N-(5-((4-([1,1′-biphenyl]-3-yl)-5-chloropyrimidin-2-yl)amino)pyridin-3-yl)-6-(6-((2-(2,6-dioxopiperidin-3-yl)-1,3-dioxoisoindolin-4-yl)oxy)hexanamido)hexanamide], `O=C(COc1ccc(NC2CCC(=O)NC2=O)cc1)NCCCCCCCCCC(=O)Nc1cncc(Nc2ncc(Cl)c(-c3cccc(-c4ccccc4)c3)n2)c1` (centres unmarked) [Compound 55, N-(5-((4-([1,1′-biphenyl]-3-yl)-5-chloropyrimidin-2-yl)amino)pyridin-3-yl)-10-(2-(4-((2,6-dioxopiperidin-3-yl)amino)phenoxy)acetamido)decanamide] is lower in DC50: 1000 to 5000 nM for the first, 500 to 1000 nM for the second.

`O=C1CCC(Nc2ccc(N3CCC(CC(=O)N4CCC5(CC4)CCN(c4cncc(Nc6ncc(Cl)c(-c7cccc(C8CCCC8)c7)n6)c4)C5=O)CC3)cc2)C(=O)N1` (centres unmarked) [Compound 191, 3-((4-(4-(2-(2-(5-((5-chloro-4-(3-cyclopentylphenyl)pyrimidin-2-yl)amino)pyridin-3-yl)-1-oxo-2,8-diazaspiro[4.5]decan-8-yl)-2-oxoethyl)piperidin-1-yl)phenyl)amino)piperidine-2,6-dione] and `O=C1CCC(N2Cc3c(OCCCCCCCCCC(=O)N4CCC5(CC4)CCN(c4cncc(Nc6ncc(Cl)c(-c7cccc(-c8ccccc8)c7)n6)c4)C5=O)cccc3C2=O)C(=O)N1` (centres unmarked) [Compound 69, 3-(4-((10-(2-(5-((4-([1,1′-biphenyl]-3-yl)-5-chloropyrimidin-2-yl)amino)pyridin-3-yl)-1-oxo-2,8-diazaspiro[4.5]decan-8-yl)-10-oxodecyl)oxy)-1-oxoisoindolin-2-yl)piperidine-2,6-dione] cannot be ordered by DC50: < 500 nM for the first, < 500 nM for the second.
